The values that follow come from ChEMBL document CHEMBL4825757, “Optimization of 4,6-Disubstituted Pyrido[3,2-d]pyrimidines as Dual MNK/PIM Inhibitors to Inhibit Leukemia Cell Growth” (J Med Chem, 2021).

The source made the active and inactive calls. The rule behind the calls is not given here.

Data set [1] addresses Epidermal growth factor receptor (Homo sapiens, UniProt P00533). The data set can be described thus: Inhibition of wild-type human partial length EGFR (R669 to V1011 residues) expressed in bacterial expression system at 1 uM by Kinomescan method relative to control.
The test system of data set [2] is K562. The data set can be described thus: Downregulation of cyclin-D1 levels in human K562 cells at 1 to 2 uM incubated for 24 hrs by western blot analysis. The format is functional, cell-based. The settings on record: dose 1-2 µM.
The subject of data set [3] is MOLM-13. Put plainly: Antitumor activity against human MOLM-13 cells xenografted in NOD/SCID mouse assessed as decrease in BAD phosphorylation at 10 mg/kg, ip daily for 2 weeks by western blot analysis. The format is functional, organism-based.
Data set [4] in a line: Cmax in Sprague Dawley rat at 2 mg/kg, iv measured after 24 hrs. The format is ADME, organism-based. Set-up: route intravenous, time 24 hrs, dose 2 mg/kg. Conditions: in vivo.

Epidermal growth factor receptor, sequence (P00533 whole entry, the tested form may be a part): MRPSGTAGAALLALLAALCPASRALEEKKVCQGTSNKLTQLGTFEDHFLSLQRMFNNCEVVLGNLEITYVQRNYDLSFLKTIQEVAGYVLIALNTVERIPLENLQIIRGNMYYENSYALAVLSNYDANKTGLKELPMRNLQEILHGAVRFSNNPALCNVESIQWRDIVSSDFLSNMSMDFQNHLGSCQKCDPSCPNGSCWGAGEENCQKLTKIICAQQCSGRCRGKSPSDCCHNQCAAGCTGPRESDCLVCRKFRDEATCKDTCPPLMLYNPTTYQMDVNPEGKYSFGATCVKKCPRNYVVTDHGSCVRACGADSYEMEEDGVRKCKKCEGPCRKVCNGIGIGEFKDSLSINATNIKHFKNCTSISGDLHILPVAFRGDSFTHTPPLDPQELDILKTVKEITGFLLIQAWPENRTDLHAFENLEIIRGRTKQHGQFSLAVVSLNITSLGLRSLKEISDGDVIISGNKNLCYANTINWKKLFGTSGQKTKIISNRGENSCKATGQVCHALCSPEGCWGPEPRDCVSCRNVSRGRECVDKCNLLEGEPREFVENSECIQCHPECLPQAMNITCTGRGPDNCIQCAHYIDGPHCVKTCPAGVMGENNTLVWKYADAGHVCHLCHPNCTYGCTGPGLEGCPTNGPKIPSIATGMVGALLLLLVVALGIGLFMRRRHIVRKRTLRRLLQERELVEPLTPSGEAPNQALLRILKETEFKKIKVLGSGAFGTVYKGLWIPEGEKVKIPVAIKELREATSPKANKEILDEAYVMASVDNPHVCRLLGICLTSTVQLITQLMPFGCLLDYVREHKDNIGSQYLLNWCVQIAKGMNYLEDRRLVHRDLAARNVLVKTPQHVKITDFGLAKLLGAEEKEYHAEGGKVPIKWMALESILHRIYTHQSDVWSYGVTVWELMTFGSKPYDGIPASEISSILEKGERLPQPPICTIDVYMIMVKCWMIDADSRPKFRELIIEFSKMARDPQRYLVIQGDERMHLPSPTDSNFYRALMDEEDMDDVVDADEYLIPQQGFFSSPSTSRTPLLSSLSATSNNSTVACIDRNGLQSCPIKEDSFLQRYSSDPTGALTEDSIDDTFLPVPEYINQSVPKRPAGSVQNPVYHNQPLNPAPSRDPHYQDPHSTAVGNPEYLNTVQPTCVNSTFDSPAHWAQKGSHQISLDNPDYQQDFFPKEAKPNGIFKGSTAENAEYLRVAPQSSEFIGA

`CC(C)Oc1cc(F)ccc1Nc1ncnc2ccc(-c3ccc(C(=O)N4CCNCC4)cc3)nc12` displayed an inhibition in data set [1] of 73%. For the same molecule, the result in data set [2] and in data set [3] was Active. Moreover, in data set [4], the highest level (Cmax) was 652 ng/mL.
